Results: paper PMC10791743, “Selective CK1α degraders exert antiproliferative activity against a broad range of human cancer cell lines” (Nature Communications, 2024)
Where “and” joins values, the source holds several entries; their conditions need not be identical. Equal values may be shown once.

Key:
CK1α = CK1α (Homo sapiens, UniProt P48729+Q96SW2); assay: CK1α HiBiT live-cell kinetic degradation assay (HEK293 cells); type: cell-based; design: engineered by CRISPR/Cas9 to express endogenous CK1α (HEK293 cells) with a HiBiT tag; conditions: for Dmax at 0.111 µM: CK1, 0.111 uM; for Dmax at 0.111 µM / Dmax at 0.333 µM / Dmax at 1 µM / Dmax at 3 µM / Dmax at 10 µM: read-out: CK1a Percent Maximum Degradation; for Dmax at 0.333 µM: CK1, 0.333 uM; for Dmax at 1 µM: CK1, 1 uM; for Dmax at 3 µM: CK1, 3 uM; for Dmax at 10 µM: CK1, 10 uM; for DC50: HEK293, at 4 h
Chain of CK1α (P48729 whole entry): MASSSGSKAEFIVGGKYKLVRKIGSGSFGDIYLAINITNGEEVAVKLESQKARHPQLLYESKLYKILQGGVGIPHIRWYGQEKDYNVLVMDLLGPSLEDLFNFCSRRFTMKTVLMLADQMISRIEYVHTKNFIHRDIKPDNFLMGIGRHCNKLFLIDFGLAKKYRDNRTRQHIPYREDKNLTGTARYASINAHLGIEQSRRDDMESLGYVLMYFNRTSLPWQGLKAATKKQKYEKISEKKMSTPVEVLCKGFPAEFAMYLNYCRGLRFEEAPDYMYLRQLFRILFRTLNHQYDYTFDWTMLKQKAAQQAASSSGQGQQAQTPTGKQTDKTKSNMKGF
Chain of CK1α (Q96SW2 whole entry): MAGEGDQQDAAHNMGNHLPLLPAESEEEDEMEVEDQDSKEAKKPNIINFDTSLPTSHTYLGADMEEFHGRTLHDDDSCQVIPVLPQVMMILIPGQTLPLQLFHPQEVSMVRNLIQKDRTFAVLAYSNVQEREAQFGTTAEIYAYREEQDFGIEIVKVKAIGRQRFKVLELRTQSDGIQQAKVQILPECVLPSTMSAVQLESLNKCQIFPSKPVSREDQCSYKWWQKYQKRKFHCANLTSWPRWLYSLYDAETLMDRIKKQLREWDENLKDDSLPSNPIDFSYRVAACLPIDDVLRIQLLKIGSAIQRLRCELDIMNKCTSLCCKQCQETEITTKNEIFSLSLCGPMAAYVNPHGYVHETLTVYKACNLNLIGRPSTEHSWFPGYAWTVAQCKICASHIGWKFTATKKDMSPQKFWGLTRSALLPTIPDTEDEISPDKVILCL
Chain of CK1α (Q16531 whole entry partner): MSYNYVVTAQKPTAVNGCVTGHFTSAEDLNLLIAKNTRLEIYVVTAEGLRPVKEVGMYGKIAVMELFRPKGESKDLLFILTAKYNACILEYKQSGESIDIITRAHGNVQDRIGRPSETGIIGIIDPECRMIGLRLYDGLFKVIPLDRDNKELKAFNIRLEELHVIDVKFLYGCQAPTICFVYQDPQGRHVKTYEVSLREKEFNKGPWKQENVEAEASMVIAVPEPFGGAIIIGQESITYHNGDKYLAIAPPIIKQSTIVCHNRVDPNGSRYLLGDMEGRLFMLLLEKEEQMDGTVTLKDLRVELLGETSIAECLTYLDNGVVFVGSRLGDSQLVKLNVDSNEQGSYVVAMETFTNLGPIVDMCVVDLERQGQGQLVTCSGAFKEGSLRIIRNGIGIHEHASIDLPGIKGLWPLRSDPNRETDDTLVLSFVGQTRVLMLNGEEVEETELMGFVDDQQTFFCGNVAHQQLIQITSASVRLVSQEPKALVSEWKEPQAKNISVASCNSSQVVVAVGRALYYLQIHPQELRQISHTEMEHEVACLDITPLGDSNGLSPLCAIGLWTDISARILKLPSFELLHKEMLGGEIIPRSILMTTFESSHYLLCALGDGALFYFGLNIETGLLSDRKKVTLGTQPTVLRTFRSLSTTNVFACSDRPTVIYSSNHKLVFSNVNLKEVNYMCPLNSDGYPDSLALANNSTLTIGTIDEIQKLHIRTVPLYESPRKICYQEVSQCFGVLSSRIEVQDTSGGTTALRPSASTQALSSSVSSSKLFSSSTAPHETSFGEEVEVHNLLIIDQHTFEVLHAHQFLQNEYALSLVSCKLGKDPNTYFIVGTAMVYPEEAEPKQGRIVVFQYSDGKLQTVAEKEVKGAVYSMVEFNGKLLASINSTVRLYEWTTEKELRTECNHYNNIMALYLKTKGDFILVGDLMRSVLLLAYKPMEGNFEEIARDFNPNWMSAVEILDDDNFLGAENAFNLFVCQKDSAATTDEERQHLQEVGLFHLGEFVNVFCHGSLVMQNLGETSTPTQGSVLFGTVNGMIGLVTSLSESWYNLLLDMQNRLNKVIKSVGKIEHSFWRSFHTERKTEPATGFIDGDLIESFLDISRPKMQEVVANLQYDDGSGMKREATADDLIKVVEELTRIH
Text: To measure cellular protein levels, we used cell lines that have been engineered by CRISPR/Cas9 to express endogenous CK1α (HEK293 cells) or IKZF1 (Jurkat cells) with a HiBiT tag, which when coupled with LgBiT expression forms NanoBiT, a bioluminescent protein that can be used for kinetic studies of protein degradation. […] Cell viability was also monitored with CellTiter Glo 2.0 (Promega) at the completion of the experiment to ensure that loss of protein was not a consequence of a loss of cell viability.
IKZF1-HiBiT Jurkat LgBiT stable cells were seeded at 60,000 cells/well in 50% growth media/50% CO2 independent medium supplemented with 10% FBS and 1× Endurazine substrate. […] A dose–response curve was generated by performing 3-fold dilutions of each compound including a DMSO-only control in growth media. For live cell kinetic degradation assays, diluted compounds were added to CK1α and β-catenin plates and placed in a GloMax Discover (Promega, Cat. #GM3000) preheated to 37 °C or added to IKZF1 plates and placed in a CLARIOstar Plus (BMG LABTECH) preheated to 37 °C.
Relative protein level was determined based on normalization to the DMSO control and reported at Fractional RLUs. Degradation rate and degradation maximums were calculated from Fractional RLUs as previously described[38] using GraphPad Prism software. β-catenin stabilization time of onset for each concentration curve was calculated in GraphPad Prism by fitting an unconstrained plateau followed by one phase association model using the equation below (Y = IF(X < X0, Y0,Y0+(Plateau−Y0)*(1−exp(−K*(X−X0))))). The parameter, X0 was used as time of onset for each compound concentration.

CRBN−/− MOLM-13 cells = assay: Wild type versus CRBN−/− MOLM-13 cells (viability, CRBN dependence); type: cell-based, human; design: key to cell viability, dose-response replicate values: % viability = 100 − % activity (RLU normalized to negative control); conditions: for cell viability, dose-response replicate values: MOLM-13 CRBN KO
Text: Having identified SJ7095 as a compound with a potent antiproliferative effect in MOLM-13 cells, we next examined whether the observed effect was CRBN-dependent. […] In an orthogonal approach, we tested SJ7095 in wild-type and CRBN-knockout MOLM-13 cells in a cell viability assay (Supplementary Fig. 1b).
CRBN^−/− MOLM-13 cells were created using CRISPR-Cas9 technology. Briefly, 1 million MOLM-13 cells were transiently transfected with precomplexed ribonuclear proteins (RNPs) consisting of 400 pmol of chemically modified sgRNA (Synthego), 135pmol of SpCas9 protein (St. Jude Protein Production Core), and 500 ng of pMaxGFP (Lonza) via nucleofection (Lonza, 4D-Nucleofector™ X-unit) using solution SF and program EO100 in a 100 µl cuvette according to the manufacturer’s recommended protocol. Transfected cells (GFP+) were single-cell sorted by flow cytometry (St. Jude Flow Cytometry and Cell Sorting Shared Resource) into 96-well tissue culture-treated plates 5 days post nucleofection. Cells were clonally expanded and screened for the desired targeted modification (out-of-frame indels) via targeted deep sequencing using gene-specific primers with partial Illumina adapter overhangs as previously described. Genotyping of clones was performed using CRIS.py[59]. Knockout clones were identified as clones containing only out-of-frame indels. PowerPlex® Fusion System (Promega) was used to confirm final clone identification (Hartwell Center for Biotechnology at St. Jude). All clones tested negative for mycoplasma by the MycoAlert^TMPlus Mycoplasma Detection Kit (Lonza). CRBN knockout confirmed by immunoblot (Supplementary Material).
MOLM-13 cells were plated in Corning 8804BC white 384-well assay plates at the appropriate cell number per well and incubated overnight at 37 °C in a humidified 5 % CO2 incubator. Compounds were transferred to the assay plate from a dose-response plate using a Labcyte Echo 650 Acoustic Liquid Handler (Beckman Coulter , USA). Cytotoxicity was determined following 72 h of incubation using Promega’s CellTiter-Glo reagent according to the manufacturer’s recommendation.
Luminescence was measured on the Envision plate reader (PerkinElmer, USA). Raw luminescence relative light unit (RLU) values for each compound at each concentration were normalized to obtain % activity using the following equation (1): 100 × [(mean(negctrl) – compound)/(mean (negctrl) – mean (posctrl))]. The % activity was converted to % viability using the following equation (2):
(100 – % activity), and then pooled from replicate experiments prior to fitting. Here, negctrl and posctrl refer to the negative (DMSO) and positive controls (staurosporine) on each plate. Dose-response curves were fit to the Hill equation using the GraphPad Prism (version 10). […]

O=C1CCC(N2Cc3cc(Nc4noc5ccccc45)ccc3C2=O)C(=O)N1 (stereo not drawn) [SJ3149]
CK1a Degradation Rate Constant (CK1α; 0.111 uM): 2.872 λ/hour | CK1a Percent Maximum Degradation (CK1α; 0.111 uM): 90.93% and 90.25% and 91.10% | CK1a Degradation Rate Constant (CK1α; 0.333 uM): 3.25 λ/hour | CK1a Percent Maximum Degradation (CK1α; 0.333 uM): 91.59% and 92.14% and 92.11% | CK1a Degradation Rate Constant (CK1α; 1 uM): 3.334 λ/hour | CK1a Percent Maximum Degradation (CK1α; 1 uM): 92.68% and 92.87% and 92.05% | CK1a Degradation Rate Constant (CK1α; 3 uM): 3.448 λ/hour | CK1a Percent Maximum Degradation (CK1α; 3 uM): 93.01% and 93.23% and 92.96% | CK1a Degradation Rate Constant (CK1α; 10 uM): 3.507 λ/hour | CK1a Percent Maximum Degradation (CK1α; 10 uM, replicates): 95.39% and 95.59% and 95.66% | Dmax at 0.111 µM (CK1α): 90.6% | Dmax at 0.333 µM (CK1α): 91.9% | Dmax at 1 µM (CK1α): 92.6% | Dmax at 3 µM (CK1α): 92.7% | Dmax at 10 µM (CK1α; replicates): 95.4% | CK1α degradation depth (HiBiT) (CK1α; HEK293): near-complete degradation | CK1α degradation rate relative to SJ0040 (CK1α; HEK293): ~2 fold | CK1α degradation rate relative to lenalidomide (CK1α; HEK293): ~10 fold | DC50 (CK1α): 6 nM | CK1α degradation within the first 30 min (CK1α; at most concentrations): > 50% | viability at 0.000508 µM (CRBN−/− MOLM-13 cells; Homo sapiens, MOLM-13, MOLM-13 CRBN KO, Conc 0.000508 uM, read-out: cell viability, dose-response replicate values): 113% | viability at 0.00152416 µM (CRBN−/− MOLM-13 cells; Homo sapiens, MOLM-13, MOLM-13 CRBN KO, Conc 0.00152416 uM, read-out: cell viability, dose-response replicate values): 116% | viability at 0.00457247 µM (CRBN−/− MOLM-13 cells; Homo sapiens, MOLM-13, MOLM-13 CRBN KO, Conc 0.00457247 uM, read-out: cell viability, dose-response replicate values): 120% | viability at 0.0137174 µM (CRBN−/− MOLM-13 cells; Homo sapiens, MOLM-13, MOLM-13 CRBN KO, Conc 0.0137174 uM, read-out: cell viability, dose-response replicate values): 115% | viability at 0.0411523 µM (CRBN−/− MOLM-13 cells; Homo sapiens, MOLM-13, MOLM-13 CRBN KO, Conc 0.0411523 uM, read-out: cell viability, dose-response replicate values): 116% | viability at 0.123457 µM (CRBN−/− MOLM-13 cells; Homo sapiens, MOLM-13, MOLM-13 CRBN KO, Conc 0.123457 uM, read-out: cell viability, dose-response replicate values): 113% | viability at 0.37037 µM (CRBN−/− MOLM-13 cells; Homo sapiens, MOLM-13, MOLM-13 CRBN KO, Conc 0.37037 uM, read-out: cell viability, dose-response replicate values): 118% | viability at 10 µM (CRBN−/− MOLM-13 cells; Homo sapiens, MOLM-13, MOLM-13 CRBN KO, Conc 10 uM, read-out: cell viability, dose-response replicate values): 80.2% | cell viability, dose-response replicate values (CRBN−/− MOLM-13 cells; Conc 0.000508 uM): 112.4 and 118.871 | cell viability, dose-response replicate values (CRBN−/− MOLM-13 cells; Conc 0.00152416 uM): 110.951 and 120.77 | cell viability, dose-response replicate values (CRBN−/− MOLM-13 cells; Conc 0.00457247 uM): 113.675 and 126.396 | cell viability, dose-response replicate values (CRBN−/− MOLM-13 cells; Conc 0.0137174 uM): 112.684 and 118.779 | cell viability, dose-response replicate values (CRBN−/− MOLM-13 cells; Conc 0.0411523 uM): 113.146 and 122.731 | cell viability, dose-response replicate values (CRBN−/− MOLM-13 cells; Conc 0.123457 uM): 114.423 and 122.764 | cell viability, dose-response replicate values (CRBN−/− MOLM-13 cells; Conc 0.37037 uM): 115.466 and 130.548 | cell viability, dose-response replicate values (CRBN−/− MOLM-13 cells; Conc 1.11111 uM): 110.229 and 104.531 and 126.2 | cell viability, dose-response replicate values (CRBN−/− MOLM-13 cells; Conc 3.33333 uM): 104.594 and 98.0101 and 119.909 | cell viability, dose-response replicate values (CRBN−/− MOLM-13 cells; Conc 10 uM): 76.5849 and 88.9707

O=C1CCC(N2Cc3c(CNC(=O)c4ccc(F)cc4)cccc3C2=O)C(=O)N1 (stereo not drawn) [SJ7095]
CK1a Degradation Rate Constant (CK1α; 0.111 uM): 0.8978 λ/hour | CK1a Percent Maximum Degradation (CK1α; 0.111 uM): 64.66% and 62.79% and 62.08% | CK1a Degradation Rate Constant (CK1α; 0.333 uM): 1.129 λ/hour | CK1a Percent Maximum Degradation (CK1α; 0.333 uM): 74.90% and 74.15% and 73.38% | CK1a Degradation Rate Constant (CK1α; 1 uM): 1.27 λ/hour | CK1a Percent Maximum Degradation (CK1α; 1 uM): 79.97% and 79.25% and 79.09% | CK1a Degradation Rate Constant (CK1α; 3 uM): 1.321 λ/hour | CK1a Percent Maximum Degradation (CK1α; 3 uM): 81.84% and 80.21% and 81.34% | CK1a Degradation Rate Constant (CK1α; 10 uM): 1.331 λ/hour | CK1a Percent Maximum Degradation (CK1α; 10 uM, replicates): 81.24% and 82.05% and 83.80% | Dmax at 0.111 µM (CK1α): 64.3% | Dmax at 0.333 µM (CK1α): 75.2% | Dmax at 1 µM (CK1α): 79.8% | Dmax at 3 µM (CK1α): 80.9% | Dmax at 10 µM (CK1α; replicates): 81.6% | CK1α degradation depth (HiBiT) (CK1α; HEK293): near-complete degradation | DC50 (CK1α): 35 nM | Antiproliferative activity in wild-type vs CRBN-knockout MOLM-13 (CRBN−/− MOLM-13 cells): CRBN dependent | cell viability, dose-response replicate values (CRBN−/− MOLM-13 cells; Concentration 0.00019646): 106.764 and 101.3 and 98.2605 | cell viability, dose-response replicate values (CRBN−/− MOLM-13 cells; Concentration 0.00058939): 112.453 and 102.748 and 97.5209 | cell viability, dose-response replicate values (CRBN−/− MOLM-13 cells; Concentration 0.00176818): 107.1 and 103.949 and 100.448 | cell viability, dose-response replicate values (CRBN−/− MOLM-13 cells; Concentration 0.00530453): 108.398 and 94.7486 and 104.144 | cell viability, dose-response replicate values (CRBN−/− MOLM-13 cells; Concentration 0.0159136): 99.903 and 106.159 and 104.247 | cell viability, dose-response replicate values (CRBN−/− MOLM-13 cells; Concentration 0.0477407): 84.8196 and 104.71 and 103.354 | cell viability, dose-response replicate values (CRBN−/− MOLM-13 cells; Concentration 0.143222): 100.147 and 105.205 and 99.7326 | cell viability, dose-response replicate values (CRBN−/− MOLM-13 cells; Concentration 0.429667): 110.361 and 97.2541 and 107.93 | cell viability, dose-response replicate values (CRBN−/− MOLM-13 cells; Concentration 1.289): 106.321 and 101.904 and 97.9209 | cell viability, dose-response replicate values (CRBN−/− MOLM-13 cells; Concentration 3.867): 79.059 and 84.9366 and 87.8303
